# Measurements as given in patent publication US10537541B2, “Treatment of focal segmental glomerular sclerosis (FSGS) using therapeutically effective oral doses of 10-nitro-9(E)-octadec-9-enoic acid” (Complexa, Inc., priority 2015, dated 2020).
# What was measured:
# [1] = target: CYP450 3A4 (Homo sapiens, UniProt P08684); experiment: In vitro CYP450 evaluation; format: in vitro ADME
# [2] = test system: obese male subjects; experiment: Multiple ascending dose study in obese males: serum biomarkers (leptin, MCP-1, IL-6, triglycerides, cholesterol); format: in vivo, human
# Text: Biomarker characterization included the following laboratory parameters: serum leptin, FBG, total cholesterol, HDL and LDL, triglycerides, HR, PR, QRS interval and T-wave morphology measured on ECGs extracted from cardiac Holter monitoring, measurements of serum RBP4, CRP, PAI-1, measurements of serum cytokines: IL-6, TNFα, MCP-1, measurements of the following biomarkers in whole blood by quantitative reverse transcriptase polymerase chain reaction (qRT-PCR) including: HO-1, NQ01, GCLM, HSP70 (HSP1A HSP1B, HSPA6), HSP22 (HSPB8) and HPS40 (DNAJA4), urine RBP4, MCP-1 and KIM-1, urinary exosomes by qRT-PCR including: HO-1, NQ01, GCLM, HSP70 (HSP1A HSP1B, HSPA6), HSP22 (HSPB8) and HPS40 (DNAJA4), gene and protein expression analyses by DNAseq, RNAseq, and western blots in PBMCs and ratio of EETs to DHETs in serum and urine.
# This was a single-center, randomized, double-blind, placebo-controlled study of sequential multiple ascending doses of oral CXA-10 in obese male subjects. Eligible subjects included obese males age 19 to 57 years and BMI 27.0 to 39.5 kg/m^2. CXA-10 and placebo were provided as solutions in hard shell capsules. Three (3) cohorts of subjects were dosed once daily with CXA-10 for 14 days. The doses administered in this study were 25, 150 and 450 mg. Subjects enrolled in the highest dose level (450 mg) were administered 600 mg on day 1 then 450 mg for 13 days. This cohort (cohort 3) was given the option to receive an additional 450 mg dose on day 15 with a high fat (50%) breakfast.
# Full PK profiles were obtained on Days 1 and 14. For subjects in cohort 3 who participate in the additional procedures on Day 15, full PK profiles were obtained on Days 1, 14, and 15. An abbreviated PK profile could also be obtained for the highest dose cohort only on one additional day. The actual day of PK sampling coincided with the additional day of Holter monitoring for the highest dose cohort. Subjects returned on Day 21 and Day 28 for PK, safety, and biomarker assessments.
# [3] = test system: deoxycorticosterone acetate (DOCA)/salt-induced model of FSGS; experiment: DOCA/salt-induced mouse model of FSGS: renoprotection, body weight, blood pressure, organ/body weight ratios; format: in vivo, mice (129/sv strain); details: DOCA/salt mice
# Experimental: 10-nitro-9(E)-octadec-9-enoic acid, given orally after onset of renal injury, was evaluated for efficacy in a model for Focal Segmental Glomerular Sclerosis (FSGS) in humans. […] Mice were uni-nephrectomized and, after two weeks, implanted subcutaneously with DOCA (50 mg, 21-day release) or placebo sustained release pellets, with pellet replacement 3 weeks later. All groups, except the sham control group, also received 1% NaCl in tap water. 10-nitro-9(E)-octadec-9-enoic acid (daily oral gavage, 2.5 or 12.5 mg/kg) or enalapril (20 mg/kg/day in drinking water) treatments began 2 weeks after the first DOCA implantation and continued for 4 weeks. Enalapril was included for comparison because it is used as standard of care for FSGS and this is a positive control for the model.
# Induction of model: Male mice (129/sv strain) were purchased from Taconic Labs. The animals were uninephrectomized (Unx) at 6 weeks of age by the vendor and shipped one week after surgery. At 2 weeks post Unx, a DOCA or placebo pellet (21-day release pellets, 50 mg/pellet, Innovative Research of America, Sarasota, Fla.) was implanted s.c. All mice were then placed on a semisynthetic diet which contained a moderate fat content and a low phytoestrogen/anti-oxidant level, which approximates a normal human diet (4). A second DOCA or placebo pellet was implanted three weeks later.
# Treatment: Mice were treated with placebo, 10-nitro-9(E)-octadec-9-enoic acid at a dose of 2.5 and 12.5 mg/kg, or enalapril (standard of care) for 4 weeks by oral gavage starting 2 weeks after the first DOCA implantation. One percent NaCl in tap water was given to each group except the sham control group. Body weight was measured weekly, and doses were readjusted based on the current body weight. Urine and blood samples were collected prior to treatment and at week 2 and 4 of treatment. Mice were terminated at week 4. Data is presented as the mean+SEM for the number of animals listed in each group.
# [4] = test system: adriamycin-induced nephropathy model; details: continually infused at disease onset; cited from earlier work
# [5] = test system: deoxycorticosterone acetate (DOCA)/salt-induced model of FSGS; experiment: DOCA salt study: serum and urine analyses; format: in vivo, mice (129/sv strain); details: DOCA/salt mice; for reduction in albuminuria: 2.5 mg/kg p.o. QD
# Experimental: Induction of model: Male mice (129/sv strain) were purchased from Taconic Labs. The animals were uninephrectomized (Unx) at 6 weeks of age by the vendor and shipped one week after surgery. At 2 weeks post Unx, a DOCA or placebo pellet (21-day release pellets, 50 mg/pellet, Innovative Research of America, Sarasota, Fla.) was implanted s.c. All mice were then placed on a semisynthetic diet which contained a moderate fat content and a low phytoestrogen/anti-oxidant level, which approximates a normal human diet (4). A second DOCA or placebo pellet was implanted three weeks later. […] One percent NaCl in tap water was given to each group except the sham control group. Body weight was measured weekly, and doses were readjusted based on the current body weight. Urine and blood samples were collected prior to treatment and at week 2 and 4 of treatment. Mice were terminated at week 4. Data is presented as the mean+SEM for the number of animals listed in each group. Serum and urine analyses: Blood samples were collected from the retro-orbital sinus and samples were separated to serum. Serum and urine creatinine (enzymatic assay), blood urea nitrogen (BUN), and serum cholesterol were measured using a Cobas 400 plus bioanalyzer (Roche Diagnostics, IN). Urine samples were collected for 24 h using metabolic cages. Urine albumin was measured by immunoassay Albuwell M (Exocell Inc., Philadelphia, Pa.). Immuno-ELISA according to manufacturer's instructions was used to measure urine nephrin (Exocell Inc., Philadelphia, Pa.) and MCP-1 (Thermal Scientific, Waltham, Mass.). Kim-1 was measured using the E-90KIM Mouse ELISA Kit (Immunology Consultants Laboratory, Portland, Oreg.). Statistical analyses for serum and urine data was performed using a two-tailed Student's t-test.
# [6] = low dose 2.5 mg/kg p.o. QD, 4 weeks
# [7] = lower dose 2.5 mg/kg p.o. QD, 4 weeks
# CYP450 3A4, sequence (P08684 whole entry): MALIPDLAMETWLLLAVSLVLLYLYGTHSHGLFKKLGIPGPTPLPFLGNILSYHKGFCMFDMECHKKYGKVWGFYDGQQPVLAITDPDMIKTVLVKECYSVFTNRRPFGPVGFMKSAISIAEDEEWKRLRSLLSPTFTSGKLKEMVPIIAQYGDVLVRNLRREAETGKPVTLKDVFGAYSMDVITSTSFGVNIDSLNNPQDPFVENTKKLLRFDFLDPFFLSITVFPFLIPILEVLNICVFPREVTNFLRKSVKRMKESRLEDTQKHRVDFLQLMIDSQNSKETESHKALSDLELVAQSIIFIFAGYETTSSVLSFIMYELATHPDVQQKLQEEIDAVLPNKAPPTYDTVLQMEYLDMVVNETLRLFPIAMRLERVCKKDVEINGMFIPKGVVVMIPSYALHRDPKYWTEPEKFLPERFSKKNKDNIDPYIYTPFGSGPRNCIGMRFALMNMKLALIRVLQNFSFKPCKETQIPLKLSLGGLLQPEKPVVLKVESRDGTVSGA
structure (smiles),measurement,setting,value
"CCCCCCCC/C(=C\CCCCCCCC(=O)O)[N+](=O)[O-] [CXA-10, 10-nitro-9(E)-octadec-9-enoic acid]",IC50,[1],> 33 µM
same,"Cholesterol concentrations, change from baseline",[2]; 150 mg,trend to decrease from baseline
same,MCP-1 mean change from baseline compared to placebo,[2]; 150 mg,significantly different compared to placebo
same,Triglycerides LS Mean Difference (CI),"[2]; 150 mg versus placebo, Day 8",-45.4 mg/dL
same,MCP-1 LS Mean Difference (CI),"[2]; 150 mg versus placebo, Day 14 (0-10 hr)","−228.5 (−387.2, −69.77) pg/mL"
same,Triglycerides LS Mean Difference (CI),"[2]; 150 mg versus placebo, Day 15",-59.6 mg/dL
same,decrease of leptin concentrations from baseline,"[2]; 150 mg, day 14, placebo increased 35%",21.5%
same,"IL-6 concentrations, change from baseline","[2]; 150 mg, days 7 and 14",trend to decrease from baseline
same,Leptin % change from baseline,"[2]; Cohort 2 150 mg (n = 10), Day 14",−21.5%
same,Leptin LS Mean Difference (CI) versus placebo,"[2]; Cohort 2 150 mg versus placebo, Day 14","−56.5 (−140.5, 27.5) pg/mL"
same,renal protector (renoprotective effect),[3]; 2.5 mg/kg/day oral gavage,highly effective as a renal protector
same,body weight gains,"[3]; 10-nitro-9(E)-octadec-9-enoic acid 2.5 or 12.5 mg/kg p.o. or enalapril 20 mg/kg/d, 4 weeks",unaffected
same,kidney/body weight and heart/body ratios,[3]; [6],reduced
same,podocyte number,[4],increase in podocyte number
same,reduction in albuminuria,[5]; week 2 post-dosing,49%
same,reduction in albuminuria,[5]; week 4 post-dosing,34%
same,albuminuria,[5]; high dose 12.5 mg/kg p.o. QD,had an effect initially but it was not sustained
same,urinary MCP-1 excretion,"[5]; high dose 12.5 mg/kg p.o. QD, 4 weeks",had no effect
same,plasma cholesterol,[5]; [6],reduced
same,urinary MCP-1 excretion,[5]; [6],significantly reduced
same,albumin excretion,[5]; [7],markedly reduced
same,urinary nephrin levels,[5]; [7],markedly reduced
